Assay results published in patent publication US11440903B2, “Salt form and crystal form of compound as FGFR4 inhibitor and preparation method thereof” (GUANGDONG ZHONGSHENG PHARMACEUTICAL CO., LTD, priority 2017, dated 2022).

Assays:
[1] = Stability of the crystal form on stirring as suspension in solvent (40° C., 2 days); type: physicochemical
Experimental: 30 mg of the compound represented by formula (I) was weighed and added into a glass flask, 400 μL acetonitrile-water (1:1) was added to form a suspension. A sample of the suspension was placed on a magnetic stirrer (40° C.) for a dark stirring experiment. The sample of the suspension was centrifuged after stirring at 40° C. for 2 days, and then the residual sample was dried in a vacuum drying oven (30° C.) overnight to give a crystal form A of the compound represented by formula (I). The XRPD pattern of the crystal form A of the compound represented by formula (I) is shown in FIG. 1, the DSC pattern is shown in FIG. 2, and the TGA pattern is shown in FIG. 3.
30 mg of the compound represented by formula (I) was weighed and added into a glass flask, and 400 μL ethyl acetate was added to form a suspension. A sample of the suspension was placed on a magnetic stirrer (40° C.) for dark stirring experiment. The sample of the suspension was centrifuged after stirring at 40° C. for 2 days, and then the residual sample was dried in a vacuum drying oven (30° C.) overnight. The crystal form was detected by XRPD to give a crystal form A of the compound represented by formula (I).
30 mg of the compound represented by formula (I) was weighed and added into a glass flask, and 400 μL methanol was added to form a suspension. A sample of the suspension was placed on a magnetic stirrer (40° C.) for dark stirring experiment. The sample of the suspension was centrifuged after stirring at 40° C. for 2 days, and then the residual sample was dried in a vacuum drying oven (30° C.) overnight to give a crystal form B of the compound represented by formula (I). The XRPD pattern of the crystal form B of the compound represented by formula (I) is shown in FIG. 4, the DSC pattern is shown in FIG. 5, and the TGA pattern is shown in FIG. 6.
50 mg of the compound represented by formula (I) was weighed and added into a 1.5 mL liquid vial, and 200 μL methanol was added thereto, the obtained mixture was homogeneously mixed under ultrasound. The dissolved sample was quickly centrifuged, and the supernatant was placed in a centrifuge tube, the mouth of the tube was packed with a pierced aluminum foil, and then the tube was placed in a fume cupboard for volatilization; the sample of the suspension was placed on a magnetic stirring heater (40° C.) for stirring (in dark), and quickly centrifuged after 2 days. The resultant solid was collected and dried at 30° C. in a vacuum drying oven overnight to give the crystal form C of the compound represented by formula (I). The XRPD pattern of the crystal form C of the compound represented by formula (I) is shown in FIG. 7, the DSC pattern is shown in FIG. 8, and the TGA pattern is shown in FIG. 9.
50 mg of the compound represented by formula (I) was weighed and added into a 1.5 mL liquid vial, and 200 μL ethanol was added thereto, and the obtained mixture was homogeneously mixed under ultrasound. The dissolved sample was quickly centrifuged, the supernatant was placed into a centrifuge tube, and the mouth of the tube was packed with a pierced aluminum foil, and placed in a fume cupboard for volatilization; the sample of the suspension was placed on a magnetic stirring heater (40° C.) for stirring (in dark), and quickly centrifuged after 2 days. The solid obtained as above was collected and dried at 30° C. in a vacuum drying oven overnight to give a crystal form D of the compound represented by formula (I). The XRPD pattern of the crystal form D of the compound represented by formula (I) is shown in FIG. 10, the DSC pattern is shown in FIG. 11, and the TGA pattern is shown in FIG. 12.
35 mg of the compound represented by formula (II) was weighed and added into a 1.5 mL liquid vial, and 400 μL methanol was added thereto, and the obtained mixture was homogeneously mixed under ultrasound. […]

[2] = Solid stability test of the crystal forms (influence factors and acceleration tests; appearance, XRPD, HPLC content and impurities); type: physicochemical; details: for photostability (stability under light radiation), conclusion in words / stability under acceleration conditions, conclusion in words / stability under high humidity conditions, conclusion in words / thermal stability (high temperature), conclusion in words: conclusion of influence factors and acceleration tests
Description: A sample of the crystal form A was placed on the bottom of a glass sample bottle, and spread to a thin layer. The sample stored under high temperature, high humidity, and acceleration conditions was placed in a bottle of which the mouth was packed with a pierced aluminum foil to ensure the sample to be sufficiently exposed to ambient air; the sample stored under light radiation conditions was placed at room temperature in a standing bottle of which the mouth was open, the sample was exposed to a light resource, and sampled for detection after being radiated by sufficient energy. Samples were taken and analyzed at various time points, and the test results were compared with the initial test results of 0 day, the inspection items included appearance, content and impurities, and the test results are shown in Table 9.
A sample of the crystal form B (10 mg) was placed on the bottom of a glass sample bottle, and spread to a thin layer. The sample stored under high temperature, high humidity, and acceleration conditions were placed in a bottle of which the mouth was packed with a pierced aluminum foil to ensure the sample to be sufficiently exposed to ambient air; the sample stored under light radiation conditions was placed at room temperature in a standing bottle of which the mouth was open, the sample was exposed to a light resource, and sampled for detection after being radiated by sufficient energy, the control sample stored in dark (open, the whole sample bottle was sealed with aluminum foil to keep the content in dark) and the sample stored under light radiation conditions were placed together to exclude environmental influence on the samples. Samples were taken and analyzed at various time points, and the test results were compared with the initial test results of 0 day, the inspection items included appearance, crystal form, content and impurities, the test results are shown in Table 10.
(§1) A sample of the crystal form C was taken and placed on the bottom of a glass sample bottle, and spread to a thin layer. The sample stored under high temperature, high humidity, and acceleration conditions was placed in a bottle of which the mouth was packed with a pierced aluminum foil to ensure the sample to be sufficiently exposed to ambient air; the sample stored under light radiation conditions was placed at room temperature in a standing bottle of which the mouth was open, the sample was exposed to a light resource, and sampled for detection after being radiated by sufficient energy. Samples were taken and analyzed at various time points, and the test results were compared with the initial test results of 0 day.
as §1, with “D” for “C”
A sample of the crystal form E (10 mg) was taken and placed on the bottom of a glass sample bottle, and spread to a thin layer. […]

[3] = Acceleration test (40° C./relative humidity of 75%, open), 5 days
[4] = Acceleration test (40° C./relative humidity of 75%, open), 10 days
[5] = High humidity (room temperature/relative humidity of 92.5%, open), 5 days
[6] = High humidity (room temperature/relative humidity of 92.5%, open), 10 days
[7] = High temperature (60° C., open), 5 days
[8] = High temperature (60° C., open), 10 days
[9] = Light radiation (total illumination: 1.2 × 10^6 Lux·hr), 5 days
[10] = Light radiation (total illumination: 1.2 × 10^6 Lux·hr), 10 days

SMILES | Appearance ([2]; 0 day (initial)) | Content (%) ([2]; 0 day (initial)) | Total Impurities (%) ([2]; 0 day (initial)) | Appearance [2, 3] | Appearance [2, 4] | Content (%) [2, 4] | Total Impurities (%) [2, 4] | Appearance [2, 5] | Appearance [2, 6] | Content (%) [2, 6] | Total Impurities (%) [2, 6] | Appearance [2, 7] | Appearance [2, 8] | Content (%) [2, 8] | Total Impurities (%) [2, 8] | Appearance [2, 9] | Appearance [2, 10] | Content (%) [2, 10] | Total Impurities (%) [2, 10] | photostability (stability under light radiation), conclusion in words [2] | further results
C=CC(=O)N[C@H]1COC[C@H]1Nc1ncc(/C=C(\F)c2c(Cl)c(OC)cc(OC)c2Cl)cn1 [Crystal Form D] | Off-white | 99.33% | 0.90% | Off-white | Off-white | 99.38% | 0.96% | Off-white | Off-white | 99.36% | 0.89% | Off-white | Off-white | 99.32% | 0.94% | Off-white | Off-white | 99.41% | 0.86% | good | stability in the ethanol solution ([1]; stirring in ethanol at 40° C. for 2 days): substantially high stability; stability under acceleration conditions, conclusion in words [2]: good; stability under high humidity conditions, conclusion in words [2]: good; thermal stability (high temperature), conclusion in words [2]: good
C=CC(=O)N[C@H]1COC[C@H]1Nc1ncc(/C=C(\F)c2c(Cl)c(OC)cc(OC)c2Cl)cn1.CS(=O)(=O)O [Crystal Form F] | White | 99.26% | 0.72% | White | White | 99.22% | 0.71% | White | White | 99.24% | 0.73% | White | White | 99.22% | 0.79% | White | White | 99.30% | 0.73% | good | stability in the ethanol-water solution ([1]; stirring in ethanol-water (1:1) at 40° C. for 2 days): substantially high stability; Crystal Form (XRPD) ([2]; 0 day (initial)): form F; Crystal Form (XRPD) [2, 4]: form F; Crystal Form (XRPD) [2, 6]: form F; Crystal Form (XRPD) [2, 8]: form F; Crystal Form (XRPD) [2, 10]: form F; stability under acceleration conditions, conclusion in words [2]: good; stability under high humidity conditions, conclusion in words [2]: good; thermal stability (high temperature), conclusion in words [2]: slight impurity generation
